Results: patent US20240270809A1, “ORAL GLP RECEPTOR AGONISTS” (priority 2020, published 2024)
Positions of bridges follow the written chain, without caps; N, C: chain ends. Non-standard residues stand in square brackets, D forms with d. Residues, ends and D or L forms follow the SMILES beside them. *: point of attachment. Malonyl(2,2-Me2,histaminyl) = CC(C)(C(=O)NCCc1cnc[nH]1)C(=O)*; Ala(1H-tetrazol-5-yl) = N[C@@H](Cc1nnn[nH]1)C(=O)O; Nle = CCCC[C@H](N)C(=O)O; Aib = CC(C)(N)C(=O)O

Experiments:
human GLP1 receptor = target: T1, human GLP1 receptor (Homo sapiens, UniProt P43220); assay: cAMP accumulation assay, functional agonism of human GLP1 receptor; type: cell-based; conditions: HEK cells infected with human GLP1 receptor BacMam virus, HTRF cAMP; for Emax: HEK293, read-out: Human GLP-1R agonist cAMP Emax; for EC50: read-out: Human GLP-1R agonist cAMP pEC50 (converted)
T1 construct: expressed in transfected cells; host or cells: HEK cells, BacMam virus transduction
T1 sequence (P43220 24-463): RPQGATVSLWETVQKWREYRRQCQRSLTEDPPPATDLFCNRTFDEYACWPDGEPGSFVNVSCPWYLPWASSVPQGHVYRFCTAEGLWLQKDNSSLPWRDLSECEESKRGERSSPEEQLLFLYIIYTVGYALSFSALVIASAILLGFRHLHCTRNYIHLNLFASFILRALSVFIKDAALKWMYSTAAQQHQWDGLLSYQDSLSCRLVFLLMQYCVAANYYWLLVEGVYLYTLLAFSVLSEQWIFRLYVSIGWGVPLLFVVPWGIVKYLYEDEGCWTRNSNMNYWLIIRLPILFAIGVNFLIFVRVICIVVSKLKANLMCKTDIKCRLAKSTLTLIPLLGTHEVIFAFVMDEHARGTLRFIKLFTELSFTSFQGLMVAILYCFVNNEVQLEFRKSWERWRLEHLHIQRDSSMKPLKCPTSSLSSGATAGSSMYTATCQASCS
Procedure, shortened: (§1)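 Steps: infect HEK cells with human GLP1 or GLP2 receptor BacMam for 24 hours; freeze; resuspend in HBSS with 0.5 mM IBMX; incubate with agonist 45 min at 37° C; lyse with HTRF detection reagents and read cAMP.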

[1] = Stability of peptides in Fasted-State Simulated Intestinal Fluid (FaSSIF); type: in vitro ADME; conditions: FaSSIF with 10 mg/ml pancreatin, 37° C.; for remaining at 0.25 h: FaSSIF pH 6.5 with 10 mg/ml pancreatin, t = 15 mins
mouse GLP1 receptor = target: T2, mouse GLP1 receptor (Mus musculus, UniProt O35659); assay: cAMP accumulation assay, functional agonism of mouse GLP1 receptor; type: cell-based; conditions: HEK cells transiently transfected with mouse GLP1 receptor, HTRF cAMP; for Emax: HEK293, read-out: Mouse GLP-1R agonist cAMP Emax; for EC50: read-out: Mouse GLP-1R agonist cAMP pEC50 (converted)
T2 construct: expressed in transfected cells; host or cells: HEK cells, transient transfection with GeneJuice
T2 sequence (O35659 22-463): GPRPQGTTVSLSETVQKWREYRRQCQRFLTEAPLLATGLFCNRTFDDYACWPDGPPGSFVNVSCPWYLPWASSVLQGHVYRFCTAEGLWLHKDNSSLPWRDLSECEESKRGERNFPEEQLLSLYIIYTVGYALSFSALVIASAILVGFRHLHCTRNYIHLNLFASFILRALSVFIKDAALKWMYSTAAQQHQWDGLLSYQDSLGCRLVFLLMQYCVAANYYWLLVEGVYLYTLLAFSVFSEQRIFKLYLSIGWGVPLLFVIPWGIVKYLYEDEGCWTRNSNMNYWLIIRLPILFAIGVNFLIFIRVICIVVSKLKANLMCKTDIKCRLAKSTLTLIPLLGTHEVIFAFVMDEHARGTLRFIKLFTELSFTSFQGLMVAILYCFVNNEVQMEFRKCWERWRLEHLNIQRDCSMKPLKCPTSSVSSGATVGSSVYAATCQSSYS
Method: CAMP production upon agonist stimulation of mouse GLP2 or GLP1 receptors was assessed utilizing HiRange cAMP kit (Cisbio). In brief, HEK cells were transiently transfected for 24 hours with cDNA using GeneJuice Transfection reagent (EMD Millipore) and frozen at −80° C. for later use in the assay. […] Cells were prepared in the assay buffer (HBSS (Lonza) supplemented with 0.5 mM IBMX (Tocris)). After 45 min incubation at 37° C., the reaction was stopped by addition of the HTRF detection reagents in the lysis buffer provided in the kit. Following 1-hour incubation at RT, plates were read on Pherastar FS (BMG Labtech, Inc.) using standard HTRF settings. Dotmatics Studies software was used for calculation of pEC50 values by fitting data to a four-parameter concentration response curve.

mouse GLP2 receptor = target: T3, mouse GLP2 receptor (Mus musculus, UniProt Q5IXF8); assay: cAMP accumulation assay, functional agonism of mouse GLP2 receptor; type: cell-based; conditions: HEK cells transiently transfected with mouse GLP2 receptor, HTRF cAMP; for Emax: HEK293, read-out: Mouse GLP-2R agonist cAMP Emax; for EC50: read-out: Mouse GLP-2R agonist cAMP pEC50 (converted)
T3 construct: expressed in transfected cells; host or cells: HEK cells, transient transfection with GeneJuice
T3 sequence (Q5IXF8 1-512): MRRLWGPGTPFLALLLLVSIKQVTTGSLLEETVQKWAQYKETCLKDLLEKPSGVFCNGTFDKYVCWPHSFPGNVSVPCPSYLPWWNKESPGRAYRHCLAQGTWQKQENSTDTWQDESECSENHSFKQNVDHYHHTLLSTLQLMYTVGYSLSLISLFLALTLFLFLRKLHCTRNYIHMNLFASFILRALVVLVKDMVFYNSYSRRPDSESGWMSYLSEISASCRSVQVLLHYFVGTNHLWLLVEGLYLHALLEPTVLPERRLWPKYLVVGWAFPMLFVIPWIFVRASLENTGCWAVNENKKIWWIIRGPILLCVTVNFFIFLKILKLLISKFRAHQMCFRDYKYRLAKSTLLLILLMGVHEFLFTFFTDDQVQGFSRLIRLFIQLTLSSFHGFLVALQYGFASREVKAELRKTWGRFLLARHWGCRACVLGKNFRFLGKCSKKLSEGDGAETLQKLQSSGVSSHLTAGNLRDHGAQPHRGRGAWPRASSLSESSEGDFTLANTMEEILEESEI
Procedure, shortened: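 Transiently transfected HEK cells (24 h, frozen, 8000/well) in HBSS with 0.5 mM IBMX exposed to compound concentration series for 45 min at 37 °C. cAMP measured by HTRF after lysis and 1 h at RT; pEC50 from four-parameter concentration-response fit.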

human GLP2 receptor = target: T4, human GLP2 receptor (Homo sapiens, UniProt O95838); assay: cAMP accumulation assay, functional agonism of human GLP2 receptor; type: cell-based; conditions: HEK cells infected with human GLP2 receptor BacMam virus, HTRF cAMP; for Emax: HEK293, read-out: Human GLP-2R agonist cAMP Emax; for EC50: read-out: Human GLP-2R agonist cAMP pEC50 (converted)
T4 construct: expressed in transfected cells; host or cells: HEK cells, BacMam virus transduction
T4 sequence (O95838 1-553): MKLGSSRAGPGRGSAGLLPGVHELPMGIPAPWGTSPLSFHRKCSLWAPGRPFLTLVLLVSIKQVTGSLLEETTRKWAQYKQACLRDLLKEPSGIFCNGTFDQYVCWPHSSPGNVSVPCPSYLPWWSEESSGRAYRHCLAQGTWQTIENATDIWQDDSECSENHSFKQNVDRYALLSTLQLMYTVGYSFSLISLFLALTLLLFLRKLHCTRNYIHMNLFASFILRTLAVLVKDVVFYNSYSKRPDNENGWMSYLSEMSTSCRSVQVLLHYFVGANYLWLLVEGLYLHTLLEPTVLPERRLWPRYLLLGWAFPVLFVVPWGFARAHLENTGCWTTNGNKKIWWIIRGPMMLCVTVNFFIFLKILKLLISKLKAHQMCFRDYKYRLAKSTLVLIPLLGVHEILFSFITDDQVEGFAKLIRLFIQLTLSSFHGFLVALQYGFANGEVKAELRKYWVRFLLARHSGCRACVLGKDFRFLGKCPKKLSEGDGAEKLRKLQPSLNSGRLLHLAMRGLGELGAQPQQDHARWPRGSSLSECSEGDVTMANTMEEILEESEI
Procedure, shortened: as §1

Emax (human GLP1 receptor) | EC50 (human GLP1 receptor) | remaining at 0.5 h ([1]; t=30 mins, pH 6.5, 10 mg/ml pancreatin) | Emax (mouse GLP1 receptor) | EC50 (mouse GLP1 receptor) | Emax (mouse GLP2 receptor) | EC50 (mouse GLP2 receptor) | Emax (human GLP2 receptor) | EC50 (human GLP2 receptor) | remaining at 0.25 h [1] | Structure (SMILES)
90.1% | 0.794 nM | 5% | 91.5% | 0.126 nM | 97.7% | 10 nM | 103% | 0.398 nM |  | CCCC[C@@H]1NC(=O)[C@H](CCC(=O)O)NC(=O)[C@@H](NC(=O)[C@H](CO)NC(=O)[C@H](Cc2ccccc2)NC(=O)[C@H](CO)NC(=O)CNC(=O)[C@H](Cc2nn[nH]n2)NC(=O)C(C)(C)C(=O)NCCc2c[nH]cn2)CCCCNC(=O)C[C@@H](C(=O)N[C@H](C(=O)N[C@@H](CC(C)C)C(=O)N[C@@H](CC(=O)O)C(=O)N[C@H]2CC(=O)NCCCC[C@@H](C(=O)N[C@@H](CC(=O)O)C(=O)N[C@@H](Cc3ccccc3)C(=O)N[C@H](C(=O)N[C@@H](CC(N)=O)C(=O)N[C@@H](Cc3c[nH]c4ccccc34)C(=O)N[C@@H](CC(C)C)C(=O)N[C@H](C(=O)N[C@@H](CCC(N)=O)C(=O)N[C@H](C(=O)N[C@H]3CCC(=O)NCCCC[C@@H](C(N)=O)NC(=O)[C@H]([C@@H](C)O)NC(=O)[C@H]([C@@H](C)CC)NC3=O)[C@@H](C)O)[C@@H](C)CC)[C@@H](C)CC)NC(=O)[C@H](C)NC(=O)[C@H](C)NC(=O)[C@H](CCCCN)NC2=O)[C@@H](C)CC)NC(=O)[C@@H](Cc2ccccc2)NC1=O [Example 1] ({Malonyl(2,2-Me2,histaminyl)}-[Ala(1H-tetrazol-5-yl)]GSFSKE[Nle][dF]DILDDKAAKDFINWLIQTEITK-NH2; lactam 6-10, 14-18, 28-31)
98.7% | 2.51 nM |  | 91.4% | 0.631 nM | 99.2% | 0.00631 nM | 102% | 0.00251 nM | 1.7% | CCCC[C@H](NC(=O)[C@H](CCC(=O)O)NC(=O)[C@H](CC(=O)O)NC(=O)[C@H](CO)NC(=O)[C@H](Cc1ccccc1)NC(=O)[C@H](CO)NC(=O)CNC(=O)[C@H](CC(=O)O)NC(=O)C(C)(C)NC(=O)[C@@H](N)Cc1c[nH]cn1)C(=O)N[C@H](Cc1ccccc1)C(=O)N[C@H]1CCC(=O)NCCCC[C@@H](C(=O)N[C@@H](CCCCN)C(=O)N[C@@H](C)C(=O)N[C@@H](C)C(=O)N[C@@H](CCCCN)C(=O)N[C@@H](CC(=O)O)C(=O)N[C@@H](Cc2ccccc2)C(=O)N[C@H](C(=O)N[C@@H](CC(N)=O)C(=O)N[C@@H](Cc2c[nH]c3ccccc23)C(=O)N[C@@H](CC(C)C)C(=O)N[C@H](C(=O)N[C@@H](CCC(N)=O)C(=O)N[C@H](C(=O)N[C@@H](CCCCN)C(=O)N[C@H](C(=O)N[C@H](C(=O)N[C@@H](CC(=O)O)C(N)=O)[C@@H](C)O)[C@@H](C)CC)[C@@H](C)O)[C@@H](C)CC)[C@@H](C)CC)NC(=O)[C@H](CC(=O)O)NC(=O)[C@H](CC(C)C)NC(=O)[C@H]([C@@H](C)CC)NC1=O [Example 87] (H-H[Aib]DGSFSDE[Nle][dF]EILDKKAAKDFINWLIQTKITD-NH2; lactam 12-16 (inferred); C-terminus assumed)
99.2% | 1.26 nM |  | 96.4% | 0.1 nM | 98.7% | 0.00631 nM | 102% | 0.00316 nM | 0.5% | CCCC[C@H](NC(=O)[C@H](CCC(=O)O)NC(=O)[C@H](CC(=O)O)NC(=O)[C@H](CO)NC(=O)[C@H](Cc1ccccc1)NC(=O)[C@H](CO)NC(=O)CNC(=O)[C@H](CC(=O)O)NC(=O)C(C)(C)NC(=O)[C@@H](N)Cc1c[nH]cn1)C(=O)N[C@H](Cc1ccccc1)C(=O)N[C@H]1CCCCNC(=O)C[C@@H](C(=O)N[C@@H](CCCCN)C(=O)N[C@@H](C)C(=O)N[C@@H](C)C(=O)N[C@@H](CCCCN)C(=O)N[C@@H](CC(=O)O)C(=O)N[C@@H](Cc2ccccc2)C(=O)N[C@H](C(=O)N[C@@H](CC(N)=O)C(=O)N[C@@H](Cc2c[nH]c3ccccc23)C(=O)N[C@@H](CC(C)C)C(=O)N[C@H](C(=O)N[C@@H](CCC(N)=O)C(=O)N[C@H](C(=O)N[C@@H](CCCCN)C(=O)N[C@H](C(=O)N[C@H](C(=O)N[C@@H](CC(=O)O)C(N)=O)[C@@H](C)O)[C@@H](C)CC)[C@@H](C)O)[C@@H](C)CC)[C@@H](C)CC)NC(=O)[C@H](CC(=O)O)NC(=O)[C@H](CC(C)C)NC(=O)[C@H]([C@@H](C)CC)NC1=O [Example 88] (H-H[Aib]DGSFSDE[Nle][dF]KILDDKAAKDFINWLIQTKITD-NH2; lactam 12-16)
99.6% | 3.16 nM |  | 94.5% | 0.794 nM | 98.4% | 0.00631 nM | 102% | 0.00251 nM | 10.5% | CCCC[C@H](NC(=O)[C@H](CCC(=O)O)NC(=O)[C@H](CC(=O)O)NC(=O)[C@H](CO)NC(=O)[C@H](Cc1ccccc1)NC(=O)[C@H](CO)NC(=O)CNC(=O)[C@H](CC(=O)O)NC(=O)C(C)(C)NC(=O)[C@@H](N)Cc1c[nH]cn1)C(=O)N[C@H](Cc1ccccc1)C(=O)N[C@H](C(=O)N[C@H](C(=O)N[C@@H](CC(C)C)C(=O)N[C@@H](CC(=O)O)C(=O)N[C@H]1CCC(=O)NCCCC[C@@H](C(=O)N[C@@H](CC(=O)O)C(=O)N[C@@H](Cc2ccccc2)C(=O)N[C@H](C(=O)N[C@@H](CC(N)=O)C(=O)N[C@@H](Cc2c[nH]c3ccccc23)C(=O)N[C@@H](CC(C)C)C(=O)N[C@H](C(=O)N[C@@H](CCC(N)=O)C(=O)N[C@H](C(=O)N[C@@H](CCCCN)C(=O)N[C@H](C(=O)N[C@H](C(=O)N[C@@H](CC(=O)O)C(N)=O)[C@@H](C)O)[C@@H](C)CC)[C@@H](C)O)[C@@H](C)CC)[C@@H](C)CC)NC(=O)[C@H](C)NC(=O)[C@H](C)NC(=O)[C@H](CCCCN)NC1=O)[C@@H](C)CC)[C@@H](C)O [Example 89] (H-H[Aib]DGSFSDE[Nle][dF]TILDEKAAKDFINWLIQTKITD-NH2; lactam 16-20 (inferred); C-terminus assumed)
